# pKi: −log10 of the molar value. Like-named read-outs stand apart in the source and are kept apart here.
# Target: T1, human cloned 5-HT6 receptors (Homo sapiens, UniProt P50406)
# T1 construct: expressed in transfected cells; host or cells: Hela cells
# Assay: 5-HT6 binding affinity, [3H]-LSD displacement on membranes of Hela cells expressing human cloned 5-HT6 receptors
# Method: Comparative Evaluation of 5-HT6 Binding Affinity of Test Compounds
# The affinity of test compounds for the serotonin 5-HT6 receptor is evaluated in the following manner. Cultured Hela cells expressing human cloned 5-HT6 receptors are harvested and centrifuged at low speed (1,000×g) for 10.0 min to remove the culture media. The harvested cells are suspended in half volume of fresh physiological phosphate buffered saline solution and recentrifuged at the same speed. This operation is repeated. The collected cells are then homogenized in ten volumes of 50 mM Tris.HCl (pH 7.4) and 0.5 mM EDTA. The homogenate is centrifuged at 40,000×g for 30.0 min and the precipitate is collected. The obtained pellet is resuspended in 10 volumes of Tris.HCl buffer and recentrifuged at the same speed. The final pellet is suspended in a small volume of Tris.HCl buffer and the tissue protein content is determined in aliquots of 10-25 μl volumes. Bovine Serum Albumin is used as the standard in the protein determination according to the method described in Lowry et al., J. Biol. Chem., 193:265 (1951). The volume of the suspended cell membranes is adjusted to give a tissue protein concentration of 1.0 mg/ml of suspension. The prepared membrane suspension (10 times concentrated) is aliquoted in 1.0 ml volumes and stored at −70° C. until used in subsequent binding experiments.
# The reaction is allowed to proceed in the dark for 120 min at room temperature, at which time, the bound ligand-receptor complex is filtered off on a 96 well unifilter with a Packard Filtermate® 196 Harvester. The bound complex caught on the filter disk is allowed to air dry and the radioactivity is measured in a Packard TopCount® equipped with six photomultiplier detectors, after the addition of 40.0 μl Microscint®-20 scintillant to each shallow well. The unifilter plate is heat-sealed and counted in a PackardTopCount® with a tritium efficiency of 31.0%.
# Binding in the presence of varying concentrations of test compound is expressed as a percentage of specific binding in the absence of test compound. The results are plotted as log % bound versus log concentration of test compound. […] A linear regression line of data points is plotted, from which the IC50 value is determined and the Ki value is determined based upon the following equation: Ki=IC50/(1+L/KD) where L is the concentration of the radioactive ligand used and KD is the dissociation constant of the ligand for the receptor, both expressed in nM.
# T1 sequence (P50406 whole entry): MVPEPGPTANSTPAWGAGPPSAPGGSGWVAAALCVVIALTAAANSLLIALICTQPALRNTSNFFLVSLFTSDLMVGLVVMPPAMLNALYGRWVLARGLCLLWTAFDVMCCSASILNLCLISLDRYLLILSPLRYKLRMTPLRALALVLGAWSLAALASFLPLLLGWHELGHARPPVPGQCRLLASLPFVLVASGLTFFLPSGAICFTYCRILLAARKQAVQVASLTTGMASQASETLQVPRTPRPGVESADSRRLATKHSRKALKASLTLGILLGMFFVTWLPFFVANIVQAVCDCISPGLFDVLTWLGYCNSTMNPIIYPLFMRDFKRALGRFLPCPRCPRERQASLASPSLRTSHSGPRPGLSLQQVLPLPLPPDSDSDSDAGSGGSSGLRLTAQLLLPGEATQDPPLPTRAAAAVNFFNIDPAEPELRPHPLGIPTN
pKi (read-out: 5-HT6 Binding Ki),SMILES,pKi,further results
–,"NCCc1cn(S(=O)(=O)c2ccccc2Cl)c2cccnc12 [Example 1, 2-[1-(2-Clorobenzensulfonyl)-1H-pyrrolo[3,2-b]pyridin-3-yl]ethylamine]",–,"pKi ([3H]-LSD 3.0 nM, 120 min at room temperature, Ki=IC50/(1+L/KD), read-out: 5-HT6 Binding Ki): 8.30"
8.70,NCCc1cn(S(=O)(=O)c2ccc(Cl)s2)c2cccnc12 [Example 5],–,–
–,NCCc1cn(S(=O)(=O)c2c(Cl)nc3sccn23)c2cccnc12 [Example 11],9.10,–
–,NCCc1cn(S(=O)(=O)c2cccc(C(F)(F)F)c2)c2cccnc12 [Example 13],8.30,–
–,NCCc1cn(S(=O)(=O)c2ccc(C(F)(F)F)cc2Cl)c2cccnc12 [Example 14],7.82,–
–,NCCc1cn(S(=O)(=O)c2ccc(F)c(F)c2)c2cccnc12 [Example 15],7.80,–
8.80,NCCc1cn(S(=O)(=O)c2cccc(Cl)c2)c2cccnc12 [Example 16],–,–
–,COc1cccc(S(=O)(=O)n2cc(CCN)c3ncccc32)c1 [Example 17],8.54,–
–,NCCc1cn(S(=O)(=O)c2cnc3sccn23)c2cccnc12 [Example 18],8.80,–
8.35,NCCc1cn(S(=O)(=O)c2ccccc2)c2cccnc12 [Example 19],–,–
–,NCCc1cn(S(=O)(=O)c2cccc(F)c2)c2cccnc12 [Example 20],8.48,–
–,Cc1cccc(S(=O)(=O)n2cc(CCN)c3ncccc32)c1 [Example 22],8.62,–
–,NCCc1cn(S(=O)(=O)c2cccc(Cl)c2Cl)c2cccnc12 [Example 23],8.68,–
–,NCCc1cn(S(=O)(=O)c2ccccc2F)c2cccnc12 [Example 24],8.28,–
8.46,NCCc1cn(S(=O)(=O)c2cccc(Br)c2)c2cccnc12 [Example 25],–,–
–,NCCc1cn(S(=O)(=O)c2c(Cl)nc3sc(Cl)cn23)c2cccnc12 [Example 26],8.14,–
–,"NCCc1cn(S(=O)(=O)c2c(Cl)nc3sccn23)c2ccncc12 [Example 35, 2-{[1-(6-Chloroimidazo[2,1-b]thiazol-5-yl)sulfonyl]-1H-pyrrolo[3,2-c]pyridin-3-yl)ethylamine]",7.80,–
–,NCCc1cn(S(=O)(=O)c2cnc3sccn23)c2ccncc12 [Example 39],7.33,–
6.77,NCCc1cn(S(=O)(=O)c2cccc(F)c2)c2ccncc12 [Example 41],–,–
–,NCCc1cn(S(=O)(=O)c2ccc(Cl)s2)c2ccncc12 [Example 43],7.32,–
6.78,NCCc1cn(S(=O)(=O)c2ccccc2)c2ccncc12 [Example 44],–,–
–,NCCc1cn(S(=O)(=O)c2cccc(Cl)c2Cl)c2ccncc12 [Example 47],7.49,–
–,"COc1cccc(S(=O)(=O)n2cc(CCN)c3cccnc32)c1 [Example 68, 2-[1-(3-Methoxybenzenesulfonyl)-1H-pyrrolo[2,3-b]pyridin-3-yl]ethylamine]",7.48,–

pKi (read-out: 5-HT6 Binding Ki),SMILES,pKi,further results
7.37,NCCc1cn(S(=O)(=O)c2ccccc2)c2ncccc12 [Example 80],–,–
–,NCCc1cn(S(=O)(=O)c2ccc3ccccc3c2)c2ncccc12 [Example 82],7.92,–
–,NCCc1cn(S(=O)(=O)c2ccc(N)cc2)c2ncccc12 [Example 83],8.62,–
–,COc1ccc(S(=O)(=O)n2cc(CCN)c3cccnc32)cc1 [Example 84],7.13,–
–,N#Cc1ccccc1S(=O)(=O)n1cc(CCN)c2cccnc21 [Example 87],7.10,–
–,NCCc1cn(S(=O)(=O)c2ccccc2C(F)(F)F)c2ncccc12 [Example 89],7.42,–
–,NCCc1cn(S(=O)(=O)c2cccc(C(F)(F)F)c2)c2ncccc12 [Example 90],7.68,–
–,CC(C)c1ccc(S(=O)(=O)n2cc(CCN)c3cccnc32)cc1 [Example 93],7.41,–
–,CN(C)CCc1cn(S(=O)(=O)c2ccccc2)c2ncccc12 [Example 94],7.40,–
7.71,CN(C)CCc1cn(S(=O)(=O)c2ccc3ccccc3c2)c2ncccc12 [Example 96],–,–
–,COc1cccc(S(=O)(=O)n2cc(CCN(C)C)c3cccnc32)c1 [Example 97],7.61,–
–,COc1ccc(S(=O)(=O)n2cc(CCN(C)C)c3cccnc32)cc1OC [Example 99],7.12,–
–,CN(C)CCc1cn(S(=O)(=O)c2ccccc2C(F)(F)F)c2ncccc12 [Example 103],7.42,–
–,CN(C)CCc1cn(S(=O)(=O)c2cccc(C(F)(F)F)c2)c2ncccc12 [Example 104],7.53,–
–,Cc1ccc(C)c(S(=O)(=O)n2cc(CCN)c3cccnc32)c1 [Example 108],7.63,–
–,NCCc1cn(S(=O)(=O)c2ccc(F)c(Cl)c2)c2ncccc12 [Example 109],7.21,–
–,NCCc1cn(S(=O)(=O)c2ccc(F)cc2Cl)c2ncccc12 [Example 110],7.42,–
–,Cc1ccc(S(=O)(=O)n2cc(CCN)c3cccnc32)cc1Cl [Example 111],8.44,–
–,Cc1ccc(F)cc1S(=O)(=O)n1cc(CCN)c2cccnc21 [Example 112],7.41,–
–,Cc1cc(S(=O)(=O)n2cc(CCN)c3cccnc32)c(C)cc1Cl [Example 114],7.75,–
7.41,NCCc1cn(S(=O)(=O)c2ccccc2F)c2ncccc12 [Example 115],–,–
–,NCCc1cn(S(=O)(=O)c2cccc(F)c2)c2ncccc12 [Example 116],7.87,–
–,NCCc1cn(S(=O)(=O)c2ccc(F)c(F)c2)c2ncccc12 [Example 118],7.05,–

pKi (read-out: 5-HT6 Binding Ki),SMILES,pKi,further results
–,NCCc1cn(S(=O)(=O)c2ccccc2Cl)c2ncccc12 [Example 120],7.57,–
–,NCCc1cn(S(=O)(=O)c2cccc(Cl)c2)c2ncccc12 [Example 121],8.22,–
–,NCCc1cn(S(=O)(=O)c2ccc(Cl)cc2)c2ncccc12 [Example 122],7.30,–
–,NCCc1cn(S(=O)(=O)c2ccc(Cl)s2)c2ncccc12 [Example 129],7.93,–
–,NCCc1cn(S(=O)(=O)c2ccc(Br)s2)c2ncccc12 [Example 130],8.07,–
–,NCCc1cn(S(=O)(=O)c2cc(Cl)c(Cl)s2)c2ncccc12 [Example 131],7.71,–
7.28,NCCc1cn(S(=O)(=O)c2cc(Cl)sc2Cl)c2ncccc12 [Example 132],–,–
–,NCCc1cn(S(=O)(=O)c2cc(Br)c(Br)s2)c2ncccc12 [Example 133],7.97,–
–,NCCc1cn(S(=O)(=O)c2sc(Cl)cc2Br)c2ncccc12 [Example 134],7.54,–
7.79,NCCc1cn(S(=O)(=O)c2cc(Br)c(Cl)s2)c2ncccc12 [Example 135],–,–
7.40,NCCc1cn(S(=O)(=O)c2c(Cl)sc(Cl)c2Br)c2ncccc12 [Example 136],–,–
7.60,NCCc1cn(S(=O)(=O)c2c(Cl)nc3ccccn23)c2ncccc12 [Example 137],–,–
7.37,NCCc1cn(S(=O)(=O)c2cccc3nonc23)c2ncccc12 [Example 141],–,–
7.16,NCCc1cn(S(=O)(=O)c2cccc3nsnc23)c2ncccc12 [Example 142],–,–
–,CN(C)CCc1cn(S(=O)(=O)c2ccc(F)cc2Cl)c2ncccc12 [Example 144],7.25,–
–,Cc1cc(S(=O)(=O)n2cc(CCN(C)C)c3cccnc32)c(C)cc1Cl [Example 146],7.50,–
–,CN(C)CCc1cn(S(=O)(=O)c2ccccc2F)c2ncccc12 [Example 147],7.33,–
–,CN(C)CCc1cn(S(=O)(=O)c2cccc(F)c2)c2ncccc12 [Example 148],7.55,–
–,CN(C)CCc1cn(S(=O)(=O)c2ccc(Cl)s2)c2ncccc12 [Example 151],7.89,–
–,CN(C)CCc1cn(S(=O)(=O)c2cc(Cl)sc2Cl)c2ncccc12 [Example 152],7.27,–
–,CN(C)CCc1cn(S(=O)(=O)c2c(Cl)nc3ccccn23)c2ncccc12 [Example 153],7.24,–
–,NCCc1cn(S(=O)(=O)c2c(Cl)nc3sccn23)c2ncccc12 [Example 154],8.13,–
7.04,NCCc1cn(S(=O)(=O)c2c(Cl)nc3sc(Cl)cn23)c2ncccc12 [Example 158],–,–

SMILES,pKi (read-out: 5-HT6 Binding Ki),pKi,further results
NCCc1cn(S(=O)(=O)c2cccc(Cl)c2)c2ccncc12 [Example 40],6.96,–,–
COc1cccc(S(=O)(=O)n2cc(CCN)c3cnccc32)c1 [Example 42],6.70,–,–
Cc1cccc(S(=O)(=O)n2cc(CCN)c3cnccc32)c1 [Example 45],6.82,–,–
NCCc1cn(S(=O)(=O)c2cccc(C(F)(F)F)c2)c2ccncc12 [Example 46],6.76,–,–
NCCc1cn(S(=O)(=O)c2ccc(F)cc2F)c2ncccc12 [Example 71],6.95,–,–
COc1ccc(S(=O)(=O)n2cc(CCN)c3cccnc32)cc1OC [Example 85],6.97,–,–
CC(C)(C)c1ccc(S(=O)(=O)n2cc(CCN)c3cccnc32)cc1 [Example 91],6.94,–,–
COc1ccc(Cl)cc1S(=O)(=O)n1cc(CCN)c2cccnc21 [Example 113],6.73,–,–
